From ChEMBL document CHEMBL1201862, “PubChem BioAssay data set” (2004)
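Exposure lasted 48 hours, with cells grown in 96-well plates and compounds tested at five concentrations. Here, GI50 denotes the concentration required for 50% inhibition of growth.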 Activity calls are given as the source filed them. No stated cut-off is given here; in the data, active = GI50 up to about 1.1 µM and inactive = higher.

Legend:
Assay in all cases: DTP human tumour cell line panel, 48 h
SK-MEL-2 = test system: SK-MEL-2
SF-295 = test system: SF-295
786-0 = test system: 786-0
SK-MEL-5 = test system: SK-MEL-5
DMS-273 = test system: DMS-273
LOX IMVI = test system: LOX IMVI
SK-MEL-28 = test system: SK-MEL-28
CAKI-1 = test system: CAKI-1
UO-31 = test system: UO-31
COLO 205 = test system: COLO 205
U-251 = test system: U-251
SNB-75 = test system: SNB-75
SNB-19 = test system: SNB-19
NCI-H226 = test system: NCI-H226
HOP-92 = test system: HOP-92
OVCAR-5 = test system: OVCAR-5
HCT-116 = test system: HCT-116

Measured: GI50

CC(=O)OC1COC(N2CCc3cc([N+](=O)[O-])ccc32)C(OC(C)=O)C1OC(C)=O (centres undefined)
inactive: SK-MEL-2 > 100 µM | SF-295 > 100 µM | 786-0 > 100 µM | SK-MEL-5 > 100 µM | DMS-273 > 100 µM | LOX IMVI > 100 µM | SK-MEL-28 > 100 µM | CAKI-1 > 100 µM | UO-31 > 100 µM | COLO 205 > 100 µM | U-251 > 100 µM | SNB-75 > 100 µM | SNB-19 > 100 µM | NCI-H226 63.7 µM | HOP-92 36 µM

N#CC(C(=O)CCC(=O)Nc1cccc(Cl)c1)c1ccccc1 (centres undefined)
inactive: OVCAR-5 > 100 µM | SK-MEL-2 > 100 µM | SF-295 > 100 µM | 786-0 > 100 µM | SK-MEL-5 > 100 µM | DMS-273 > 100 µM | HCT-116 > 100 µM | LOX IMVI > 100 µM | SK-MEL-28 > 100 µM | UO-31 > 100 µM | COLO 205 > 100 µM | U-251 > 100 µM | SNB-75 > 100 µM | SNB-19 4.05 µM | NCI-H226 > 100 µM | HOP-92 > 100 µM

O=c1nc2occc2cn1C1CC(O)C(CO)O1 (centres undefined)
inactive: OVCAR-5 > 100 µM | SF-295 > 100 µM | 786-0 > 100 µM | SK-MEL-5 > 100 µM | DMS-273 > 100 µM | HCT-116 > 100 µM | LOX IMVI > 100 µM | SK-MEL-28 > 100 µM | CAKI-1 > 100 µM | UO-31 > 100 µM | COLO 205 > 100 µM | U-251 > 100 µM | SNB-75 > 100 µM | SNB-19 > 100 µM | NCI-H226 > 100 µM | HOP-92 > 100 µM

COC(=O)CCC(NC(=S)N/N=C(\C)c1ccc[nH]1)C(=O)OC (centres undefined)
inactive: OVCAR-5 > 100 µM | SK-MEL-2 > 100 µM | SF-295 > 100 µM | 786-0 > 100 µM | SK-MEL-5 > 100 µM | DMS-273 > 100 µM | HCT-116 > 100 µM | LOX IMVI > 100 µM | SK-MEL-28 > 100 µM | UO-31 > 100 µM | COLO 205 > 100 µM | U-251 > 100 µM | SNB-75 > 100 µM | SNB-19 > 100 µM | NCI-H226 > 100 µM | HOP-92 > 100 µM

Cc1ccc(C)c(NC(=O)C(=O)C2C(=O)N(c3ccccc3)N=C2N)c1 (centres undefined)
inactive: OVCAR-5 > 100 µM | SK-MEL-2 > 100 µM | SF-295 > 100 µM | 786-0 > 100 µM | SK-MEL-5 > 100 µM | DMS-273 > 100 µM | HCT-116 > 100 µM | LOX IMVI > 100 µM | SK-MEL-28 > 100 µM | CAKI-1 > 100 µM | UO-31 > 100 µM | U-251 > 100 µM | SNB-75 > 100 µM | SNB-19 > 100 µM | NCI-H226 > 100 µM | HOP-92 > 100 µM

NC(=S)N1N=C2c3ccccc3CC[C@H]2[C@@H]1c1ccc(Cl)cc1
inactive: OVCAR-5 47.6 µM | SK-MEL-2 22.3 µM | SF-295 26.7 µM | 786-0 30.6 µM | DMS-273 24.7 µM | HCT-116 15.5 µM | LOX IMVI 34.8 µM | SK-MEL-28 40.8 µM | UO-31 20.8 µM | COLO 205 17.9 µM | U-251 37.8 µM | SNB-19 47.4 µM | NCI-H226 16.7 µM | HOP-92 22.3 µM

CC(=O)/C=C1/c2ccccc2N(C(C)=O)C1O (centres undefined)
inactive: SK-MEL-2 > 100 µM | SF-295 > 100 µM | 786-0 > 100 µM | DMS-273 > 100 µM | HCT-116 > 100 µM | SK-MEL-28 > 100 µM | CAKI-1 > 100 µM | UO-31 > 100 µM | COLO 205 > 100 µM | U-251 > 100 µM | SNB-75 > 100 µM | SNB-19 > 100 µM | HOP-92 > 100 µM

COc1ccc(CCN2CCC(C#N)(c3ccc(OC)c(OC)c3)CC2)cc1OC
inactive: OVCAR-5 > 100 µM | SK-MEL-2 > 100 µM | SF-295 79.6 µM | 786-0 > 100 µM | SK-MEL-5 > 100 µM | DMS-273 > 100 µM | HCT-116 > 100 µM | LOX IMVI > 100 µM | SK-MEL-28 > 100 µM | UO-31 > 100 µM | COLO 205 > 100 µM | U-251 > 100 µM | SNB-75 30.5 µM | SNB-19 > 100 µM | NCI-H226 > 100 µM | HOP-92 13.5 µM

C=CCN(N=O)C(=O)NCCCCC(NC(C)=O)C(=O)NCc1ccccc1 (centres undefined)
inactive: OVCAR-5 > 100 µM | SK-MEL-2 72.6 µM | SF-295 > 100 µM | 786-0 > 100 µM | SK-MEL-5 > 100 µM | DMS-273 > 100 µM | LOX IMVI > 100 µM | SK-MEL-28 > 100 µM | CAKI-1 > 100 µM | UO-31 > 100 µM | COLO 205 > 100 µM | U-251 > 100 µM | SNB-75 > 100 µM | SNB-19 > 100 µM | NCI-H226 42.5 µM | HOP-92 > 100 µM

O=C1CCC(=O)N1Sc1ccccc1
inactive: SK-MEL-2 > 100 µM | SF-295 > 100 µM | 786-0 > 100 µM | SK-MEL-5 > 100 µM | DMS-273 > 100 µM | HCT-116 > 100 µM | LOX IMVI > 100 µM | SK-MEL-28 > 100 µM | CAKI-1 > 100 µM | UO-31 > 100 µM | COLO 205 > 100 µM | U-251 > 100 µM | SNB-75 72.9 µM | SNB-19 > 100 µM | HOP-92 > 100 µM

COc1ccc(C2=C(Cl)c3cc(OC)c(OC)cc3C2OC)cc1OC (centres undefined)
inactive: OVCAR-5 > 100 µM | SK-MEL-2 > 100 µM | SF-295 > 100 µM | 786-0 11.2 µM | SK-MEL-5 > 100 µM | DMS-273 27.4 µM | HCT-116 95.7 µM | LOX IMVI 50.2 µM | SK-MEL-28 > 100 µM | CAKI-1 > 100 µM | UO-31 > 100 µM | COLO 205 26.9 µM | SNB-75 > 100 µM | SNB-19 > 100 µM | NCI-H226 > 100 µM | HOP-92 > 100 µM

Nc1nc2c(ncn2C2OC(CO)C(O)C2N)c(=O)[nH]1 (centres undefined)
inactive: OVCAR-5 > 100 µM | SK-MEL-2 > 100 µM | SF-295 > 100 µM | 786-0 48.2 µM | DMS-273 > 100 µM | HCT-116 > 100 µM | LOX IMVI 60.1 µM | SK-MEL-28 > 100 µM | CAKI-1 > 100 µM | UO-31 > 100 µM | COLO 205 > 100 µM | U-251 > 100 µM | SNB-75 > 100 µM | SNB-19 > 100 µM | HOP-92 > 100 µM

Cn1cc(C(=O)NCCC(=N)N)cc1NC(=O)C1=[N+](C)C=C(NC(=O)c2cccc(C(=O)NC3=CC(C(=O)Nc4cc(C(=O)NCCC(=N)N)cn4C)=[N+](C)C3)c2)C1
inactive: SK-MEL-2 > 100 µM | SF-295 > 100 µM | 786-0 37.8 µM | SK-MEL-5 42.3 µM | DMS-273 59.8 µM | LOX IMVI > 100 µM | SK-MEL-28 > 100 µM | CAKI-1 > 100 µM | UO-31 > 100 µM | COLO 205 50.7 µM | U-251 > 100 µM | SNB-75 > 100 µM | SNB-19 > 100 µM | NCI-H226 > 100 µM | HOP-92 > 100 µM
